ChEMBL document CHEMBL1287771, “Novel hybrids of 15-membered 8a- and 9a-azahomoerythromycin A ketolides and quinolones as potent antibacterials” (2010)
≈ marks a conversion by molar mass, not a printed value.

Key:
Type in all cases: functional
[1] = tested on: Streptococcus pneumoniae; test: Antibacterial activity against efflux-resistant Streptococcus pneumoniae B0326 by agar microdilution method
[2] = tested on: Staphylococcus aureus; test: Antibacterial activity against erythromycin A-susceptible Staphylococcus aureus B0329 by agar microdilution method
[3] = tested on: Streptococcus pyogenes; test: Antibacterial activity against constitutive macrolide-lincosamide-streptogramin B-resistant Streptococcus pyogenes B0544 by agar microdilution method
[4] = tested on: Streptococcus pneumoniae; test: Antibacterial activity against constitutive macrolide-lincosamide-streptogramin B-resistant Streptococcus pneumoniae B0627 by agar microdilution method
[5] = tested on: Staphylococcus aureus; test: Antibacterial activity against efflux-resistant Staphylococcus aureus B0331 by agar microdilution method
[6] = tested on: Haemophilus influenzae; test: Antibacterial activity against Haemophilus influenzae B0529 by agar microdilution method
[7] = tested on: Streptococcus pyogenes; test: Antibacterial activity against erythromycin A-susceptible Streptococcus pyogenes B0542 by agar microdilution method
[8] = tested on: Moraxella catarrhalis; test: Antibacterial activity against Moraxella catarrhalis B0324 by agar microdilution method
[9] = tested on: Staphylococcus aureus; test: Antibacterial activity against inducible macrolide-lincosamide-streptogramin B-resistant Staphylococcus aureus B0538 by agar microdilution method
[10] = tested on: Staphylococcus aureus; test: Antibacterial activity against constitutive macrolide-lincosamide-streptogramin B-resistant Staphylococcus aureus B0330 by agar microdilution method
[11] = tested on: Streptococcus pyogenes; test: Antibacterial activity against inducible macrolide-lincosamide-streptogramin B-resistant Streptococcus pyogenes B0543 by agar microdilution method
[12] = tested on: Streptococcus pyogenes; test: Antibacterial activity against efflux-resistant Streptococcus pyogenes B0545 by agar microdilution method
[13] = tested on: Streptococcus pneumoniae; test: Antibacterial activity against erythromycin A-susceptible Streptococcus pneumoniae B0541 by agar microdilution method

| Compound | MIC [1] [mg/L] | MIC [2] [mg/L] | MIC [3] [mg/L] | MIC [4] [mg/L] | MIC [5] [mg/L] | MIC [6] [mg/L] | MIC [7] [mg/L] | MIC [8] [mg/L] | MIC [9] [mg/L] | MIC [10] [mg/L] | MIC [11] [mg/L] | MIC [12] [mg/L] | MIC [13] [mg/L] |
| --- | --- | --- | --- | --- | --- | --- | --- | --- | --- | --- | --- | --- | --- |
| CC[C@H]1OC(=O)[C@H](C)C(=O)[C@H](C)[C@@H](O[C@H]2C[C@H](O)[C@@H](N(C)C)[C@@H](C)O2)[C@](C)(OC/C=C/c2cnc3ccccc3c2)C[C@@H](C)/C(=N\OC(C)=O)[C@H](C)[C@@H](O)[C@]1(C)O | ≤ 0.125 | 0.25 (≈ 0.313 µM) | 32 (≈ 40.1 µM) | 8 (≈ 10 µM) | 1 (≈ 1.25 µM) | 32 (≈ 40.1 µM) | 0.125 (≈ 0.157 µM) | 8 (≈ 10 µM) | 0.5 (≈ 0.627 µM) | 64 (≈ 80.2 µM) | ≤ 0.125 | 0.5 (≈ 0.627 µM) | ≤ 0.125 |
| CC[C@H]1OC(=O)[C@H](C)C(=O)[C@H](C)[C@@H](O[C@@H]2O[C@H](C)C[C@H](N(C)C)[C@H]2O)[C@](C)(OC/C=C/c2cnc3ccccc3c2)C[C@@H](C)C(=O)N[C@H](C)[C@H](O)[C@@]1(C)O | 8 (≈ 10.6 µM) | 8 (≈ 10.6 µM) | > 64 | 64 (≈ 84.7 µM) | 16 (≈ 21.2 µM) | 32 (≈ 42.3 µM) | 0.5 (≈ 0.661 µM) | 2 (≈ 2.65 µM) | 16 (≈ 21.2 µM) | > 64 | 64 (≈ 84.7 µM) | 4 (≈ 5.29 µM) | 2 (≈ 2.65 µM) |
| CC[C@H]1OC(=O)[C@H](C)C(=O)[C@H](C)[C@@H](O[C@H]2C[C@H](O)[C@@H](N(C)C)[C@@H](C)O2)[C@](C)(OC/C=C/c2cnc3ccccc3c2)C[C@@H](C)/C(=N\O)[C@H](C)[C@@H](O)[C@]1(C)O | ≤ 0.125 | ≤ 0.125 | 32 (≈ 42.3 µM) | 4 (≈ 5.29 µM) | 0.5 (≈ 0.661 µM) | 8 (≈ 10.6 µM) | ≤ 0.125 | 4 (≈ 5.29 µM) | ≤ 0.125 | > 64 | ≤ 0.125 | ≤ 0.125 | ≤ 0.125 |
| CC[C@H]1OC(=O)[C@H](C)C(=O)[C@H](C)[C@@H](O[C@@H]2O[C@H](C)C[C@H](N(C)C)[C@H]2O)[C@](C)(OCC=Cc2cnc3ccccc3c2)C[C@@H](C)C(=O)[C@H](C)[C@H]2NC(=O)O[C@@]21C [CETHROMYCIN] | ≤ 0.06 | ≤ 0.06 | 1 (≈ 1.31 µM) | ≤ 0.125 | 0.25 (≈ 0.326 µM) | 2 (≈ 2.61 µM) | ≤ 0.06 | ≤ 0.125 | 0.25 (≈ 0.326 µM) | > 64 | ≤ 0.06 | ≤ 0.125 | 0.06 (≈ 0.0783 µM) |
| CC[C@H]1OC(=O)[C@H](C)C(=O)[C@H](C)[C@@H](O[C@@H]2O[C@H](C)C[C@H](N(C)C)[C@H]2O)[C@](C)(OC/C=C/c2cnc3ccccc3c2)C[C@@H](C)NC(=O)[C@H](C)[C@H](O)[C@@]1(C)O | 0.5 (≈ 0.661 µM) | 1 (≈ 1.32 µM) | 8 (≈ 10.6 µM) | 16 (≈ 21.2 µM) | 0.5 (≈ 0.661 µM) | 4 (≈ 5.29 µM) | ≤ 0.125 | 0.25 (≈ 0.331 µM) | 0.5 (≈ 0.661 µM) | > 64 | 1 (≈ 1.32 µM) | 1 (≈ 1.32 µM) | ≤ 0.125 |
| CC[C@H]1OC(=O)[C@H](C)C(=O)[C@H](C)[C@@H](O[C@@H]2O[C@H](C)C[C@H](N(C)C)[C@H]2O)[C@](C)(OCC(O)CNC2CN(S(=O)(=O)c3ccc4ccncc4c3)CCN2)C[C@@H](C)NC(=O)[C@H](C)[C@H](O)[C@@]1(C)O (stereo not given in full) | 64 (≈ 68.3 µM) | 8 (≈ 8.54 µM) | > 64 | 32 (≈ 34.1 µM) | 16 (≈ 17.1 µM) | > 64 | ≤ 0.125 | 8 (≈ 8.54 µM) | 16 (≈ 17.1 µM) | > 64 | 16 (≈ 17.1 µM) | 16 (≈ 17.1 µM) | ≤ 0.125 |
| CC[C@H]1OC(=O)[C@H](C)C(=O)[C@H](C)[C@@H](O[C@@H]2O[C@H](C)C[C@H](N(C)C)[C@H]2O)[C@](C)(OCC(O)CN2CCN(c3cc4c(=O)c(C(=O)O)cn(C5CC5)c4cc3Cl)CC2)C[C@@H](C)NC(=O)[C@H](C)[C@H](O)[C@@]1(C)O (stereo not given in full) | 0.25 (≈ 0.252 µM) | 1 (≈ 1.01 µM) | 4 (≈ 4.03 µM) | 1 (≈ 1.01 µM) | 0.25 (≈ 0.252 µM) | 1 (≈ 1.01 µM) | ≤ 0.125 | ≤ 0.125 | 1 (≈ 1.01 µM) | > 64 | 1 (≈ 1.01 µM) | 0.5 (≈ 0.504 µM) | ≤ 0.125 |
| CC[C@H]1OC(=O)[C@H](C)C(=O)[C@H](C)[C@@H](O[C@@H]2O[C@H](C)C[C@H](N(C)C)[C@H]2O)[C@](C)(OCC(O)CNCCc2cccnc2)C[C@@H](C)NC(=O)[C@H](C)[C@H](O)[C@@]1(C)O (stereo not given in full) | 8 (≈ 10.4 µM) | 4 (≈ 5.22 µM) | 32 (≈ 41.7 µM) | 2 (≈ 2.61 µM) | 4 (≈ 5.22 µM) | 8 (≈ 10.4 µM) | 0.25 (≈ 0.326 µM) | 1 (≈ 1.3 µM) | 8 (≈ 10.4 µM) | > 64 | 4 (≈ 5.22 µM) | 2 (≈ 2.61 µM) | 0.5 (≈ 0.652 µM) |
| C=CCO[C@@]1(C)[C@@H](CC)OC(=O)[C@H](C)C(=O)[C@H](C)[C@@H](O[C@@H]2O[C@H](C)C[C@H](N(C)C)[C@H]2O)[C@](C)(OCC=C)C[C@@H](C)C(=O)N[C@H](C)[C@@H]1O [3-O-DESCLADINOSYL-6,12-DI-O-ALLYL-3-OXO-9A-AZA-9A-HOMOERYTHROMYCIN A] | 4 (≈ 5.98 µM) | 8 (≈ 12 µM) | > 64 | > 64 | 16 (≈ 23.9 µM) | 16 (≈ 23.9 µM) | 2 (≈ 2.99 µM) | ≤ 0.125 | 8 (≈ 12 µM) | > 64 | 32 (≈ 47.8 µM) | 8 (≈ 12 µM) | 2 (≈ 2.99 µM) |
| C=CCO[C@]1(C)C[C@@H](C)NC(=O)[C@H](C)[C@H](O)[C@@](C)(O)[C@@H](CC)OC(=O)[C@H](C)C(=O)[C@H](C)[C@H]1O[C@@H]1O[C@H](C)C[C@H](N(C)C)[C@H]1O | 16 (≈ 25.4 µM) | 2 (≈ 3.18 µM) | > 64 | > 64 | 8 (≈ 12.7 µM) | 16 (≈ 25.4 µM) | 0.25 (≈ 0.398 µM) | ≤ 0.125 | 2 (≈ 3.18 µM) | > 64 | 16 (≈ 25.4 µM) | 8 (≈ 12.7 µM) | ≤ 0.125 |
| CC[C@H]1OC(=O)[C@H](C)C(=O)[C@H](C)[C@@H](O[C@@H]2O[C@H](C)C[C@H](N(C)C)[C@H]2O)[C@](C)(OC)C[C@@H](C)C(=O)[C@H](C)[C@H]2N(CCCCn3cnc(-c4cccnc4)c3)C(=O)O[C@]12C [TELITHROMYCIN] | 0.5 (≈ 0.616 µM) | ≤ 0.125 | 4 (≈ 4.93 µM) | ≤ 0.125 | 0.25 (≈ 0.308 µM) | 2 (≈ 2.46 µM) | ≤ 0.06 | ≤ 0.125 | 0.5 (≈ 0.616 µM) | > 64 | ≤ 0.06 | 0.25 (≈ 0.308 µM) | 0.06 (≈ 0.0739 µM) |
| CC[C@H]1OC(=O)[C@H](C)[C@@H](O[C@@H]2C[C@@](C)(OC)[C@@H](O)[C@H](C)O2)[C@H](C)[C@@H](O[C@@H]2O[C@H](C)C[C@H](N(C)C)[C@H]2O)[C@](C)(OC/C=C/NCCc2ccc([N+](=O)[O-])cc2)C[C@@H](C)C(=O)N[C@H](C)[C@H](O)[C@@]1(C)O | 16 (≈ 16.8 µM) | 32 (≈ 33.6 µM) | > 64 | > 64 | 32 (≈ 33.6 µM) | 64 (≈ 67.1 µM) | 0.125 (≈ 0.131 µM) | 8 (≈ 8.39 µM) | > 64 | > 64 | 4 (≈ 4.2 µM) | 16 (≈ 16.8 µM) | > 64 |
| C=CCO[C@]1(C)C[C@@H](C)C(=O)N[C@H](C)[C@H](O)[C@@](C)(O)[C@@H](CC)OC(=O)[C@H](C)C(=O)[C@H](C)[C@H]1O[C@@H]1O[C@H](C)C[C@H](N(C)C)[C@H]1O [3-O-DESCLADINOSYL-3-OXO-6-O-ALLYL-9A-AZA-9A-HOMOERYTHROMYCIN A] | > 64 | > 64 | > 64 | > 64 | > 64 | > 64 | > 64 | 16 (≈ 25.4 µM) | > 64 | > 64 | > 64 | > 64 | > 64 |
| C=CCO[C@]1(C)C[C@@H](C)NC(=O)[C@H](C)[C@H](O)[C@@](C)(O)[C@@H](CC)OC(=O)[C@H](C)[C@@H](O[C@@H]2C[C@@](C)(OC)[C@@H](O)[C@H](C)O2)[C@H](C)[C@H]1O[C@@H]1O[C@H](C)C[C@H](N(C)C)[C@H]1O | 8 (≈ 10.1 µM) | 0.25 (≈ 0.317 µM) | > 64 | > 64 | 64 (≈ 81.1 µM) | 1 (≈ 1.27 µM) | ≤ 0.125 | ≤ 0.125 | > 64 | > 64 | 16 (≈ 20.3 µM) | 16 (≈ 20.3 µM) | ≤ 0.125 |
| CC[C@H]1OC(=O)[C@H](C)C(=O)[C@H](C)[C@@H](O[C@@H]2O[C@H](C)C[C@H](N(C)C)[C@H]2O)[C@](C)(OC/C=C/c2cnc3ccccc3c2)C[C@@H](C)NC(=O)[C@H](C)[C@@H]2OC(=O)O[C@]12C | ≤ 0.125 | ≤ 0.125 | 8 (≈ 10.2 µM) | 4 (≈ 5.12 µM) | 0.25 (≈ 0.32 µM) | 1 (≈ 1.28 µM) | ≤ 0.125 | 0.25 (≈ 0.32 µM) | 0.25 (≈ 0.32 µM) | 64 (≈ 81.8 µM) | ≤ 0.125 | 0.5 (≈ 0.639 µM) | 0.06 (≈ 0.0767 µM) |
